# Laboratory results taken from patent publication US20240228950A1, “MICROPATTERNED 3D HYDROGEL MICROARRAY IN FLUIDIC CHANNELS FOR SPHEROID-IN-GEL CULTURE” (NANYANG TECHNOLOGICAL UNIVERSITY, priority 2021, published 2024).
# What was measured:
# Type in all cases: cell-based, human
# HUVEC = experiment: Live/dead assay (Calcein-AM/PI) of endothelial cells co-cultured with spheroids after drug treatment; settings: spheroid co-cultured with HUVEC, 3 days treatment
# Procedure: The chip was incubated at 37° C. for 30 min to allow for gelation of collagen and Matrigel, following which DMEM with 10% FBS was added into the fluidic channel. For co-culture with HUVEC, the channel was coated with polydopamine (1 mg/mL) for 30 min at 37° ° C. to facilitate HUVEC adhesion and growth. The polydopamine solution was prepared by dissolving dopamine hydrochloride (Sigma Aldrich, St. Louis, MO, USA) in Tris-HCl buffer, pH 8.5. The channel was washed with 1× Phosphate Buffer Saline (PBS) three times, following which a suspension of HUVEC (1.5 million/mL) was loaded into the channel and allowed to grow for 2 days to reach confluency. The HUVEC were cultivated under static conditions.
# Following that, the cells were stained with VE-Cadherin rabbit anti-human CD144 primary antibody (10 μg/mL, Enzo, Farmingdale, NY, USA) overnight at 4° C. On the next day, the cells were rinsed with 0.1% BSA in PBS three times, and fluorescently labeled with AlexaFluor 488 goat anti-rabbit secondary antibody (20 μg/mL, Life Technologies, Carlsbad, CA, USA) for 4 hr at room temperature. […]
# The cells/spheroids were then imaged using a fluorescence microscope (Nikon Eclipse Ti, Melville, NY, USA). […] Fluorescence intensity of Calcein-AM and PI was analyzed using ImageJ and calculated according to equation (1) below.
# MCF-7 spheroids = experiment: Live/dead assay (Calcein-AM/PI) of spheroids-in-gel after drug treatment; settings: 3 days treatment
# Procedure: For spheroid-in-gel culture on the microarray chip, the PDMS surface was made hydrophilic by a 1-min plasma treatment using a plasma cleaner (PDC-002, Harrick Plasma Inc, Ithaca, NY, USA) to ensure even spreading of hydrogel onto the surface of the island. MCF-7 cells were dissociated and resuspended to a concentration of 1.7 million per mL. Collagen I was added to the suspension at 20 g/mL to enhance spheroid formation. MCF-7 suspension was loaded onto each island (3 L per island), following which the PDMS chip was inverted on top of a water reservoir for a hanging drop culture. […] The chip was maintained 37 °C for 2 days to allow for spheroid formation. […] Upon spheroid formation, the chip was subjected to media evaporation in the 37° C. incubator, following which collagen I (3 mg/mL) or Matrigel (4 mg/mL, Corning. NY, USA) was loaded onto each island (2 L per island) for in-place encapsulation of the spheroid. The chip was incubated at 37° C. for 30 min to allow for gelation of collagen and Matrigel, following which DMEM with 10% FBS was added into the fluidic channel. For co-culture with HUVEC, the channel was coated with polydopamine (1 mg/mL) for 30 min at 37° ° C. to facilitate HUVEC adhesion and growth. The polydopamine solution was prepared by dissolving dopamine hydrochloride (Sigma Aldrich, St. Louis, MO, USA) in Tris-HCl buffer, pH 8.5. The channel was washed with 1× Phosphate Buffer Saline (PBS) three times, following which a suspension of HUVEC (1.5 million/mL) was loaded into the channel and allowed to grow for 2 days to reach confluency. The HUVEC were cultivated under static conditions. […] The cells/spheroids were then imaged using a fluorescence microscope (Nikon Eclipse Ti, Melville, NY, USA). […] Fluorescence intensity of Calcein-AM and PI was analyzed using ImageJ and calculated according to equation (1) below. […] Spheroid area is determined by Hoechst staining. […] The same set of imaging parameters including exposure time and focal plane was used when acquiring the images to minimize inaccuracies in the fluorescence intensity.
# [1] = tested on: HUVEC endothelial barrier; experiment: Endothelial barrier integrity study (FITC-dextran 70 kDa diffusion into hydrogel island); settings: HUVEC treated with 100 and 500 nM for 3 days; 60 min dextran incubation
# Procedure: To assess the endothelial barrier integrity after drug treatment in the spheroid-in-gel chip, Collagen I (3 mg/mL) and HUVEC were seeded into the chip as described in example 2C. Sub-confluent HUVEC were treated with Paclitaxel (100 and 500 nM) and cultured for 3 days prior to the barrier permeability test. Fluorescence images were taken before and after 1 hr incubation with 10 μg/mL 70 kDa dextran conjugated with fluorescein isothiocyanate (FITC, Sigma Aldrich, St. Louis, MO, USA) loaded in the fluidic channels. Fluorescence intensities within the hydrogel island were expressed as the fold change (time 60 min over 0 min) and normalized to the untreated control.
compound,measurement,setting,value
CC(=O)O[C@H]1C(=O)[C@@]2(C)[C@H]([C@H](OC(=O)c3ccccc3)[C@]3(O)C[C@H](OC(=O)[C@H](O)[C@@H](NC(=O)c4ccccc4)c4ccccc4)C(C)=C1C3(C)C)[C@]1(OC(C)=O)CO[C@@H]1C[C@@H]2O [Paclitaxel],EC death by live/dead staining (Calcein-AM/PI),HUVEC,higher EC death
same,MCF-7 death by live/dead staining (Calcein-AM/PI),"MCF-7 spheroids; mono-cultured spheroids, PTX 1, 100, 500 nM",higher MCF-7 death with increasing drug concentration
same,"PI intensity of drug-treated spheroids, mono-culture versus co-culture","MCF-7 spheroids; with or without HUVEC co-culture, PTX 1, 100, 500 nM",negligible differences in PI intensity
same,"Spheroid Calcein-AM intensity (survival), co-culture versus mono-culture","MCF-7 spheroids; with or without HUVEC co-culture, normalized to untreated group","trend of better survival of spheroids in co-cultures as compared to mono-culture, although no significant difference was observed"
same,Endothelial barrier integrity based on diffusion of FITC-Dextran 70 kDa into the hydrogel islands,[1],impaired the endothelial barrier integrity
